Results as given in patent US20020022718A1, “Genes identified as required for proliferation of E. coli” (priority 1999, published 2002).
In brackets after ≈: the same amount, converted by molar mass. Like-named read-outs stand apart in the source and are kept apart here.

B1: EcXA134: antisense clone insert to E. coli sspA (nucleic acid, listed as Escherichia coli)
antisense: TGTTCGATCTCGAAACTTACACCTTTCTCAGCCAGCACAATGCGGACCTGATGGCTATAGATGTCAGTAGGACCGGAAAACAGCGTCATTACCCGAACGTTTGTTGGC
B2: EcXA161: antisense clone insert to E. coli sbcD (nucleic acid, listed as Escherichia coli)
antisense: GAAACTCAGTGGAATGGGGGAGCCGCAATAGCGAACATGTTCCATGCCGCCAATAATCTGTGCGCGGTGAATATGCCCGAGCGCGATGTAGTCGGCTGGTGGAAAGTTTTGTGCCGGAAACGCGTCCAGCGTGCCAATATAAATGTCACGCACGGCGTCACTTTTACTGGCCCCCACGGTCGTTAAATGTCCCGTGGCGATGATGGGCAGAGGCTGATCGCCGCGCAGTTTGCAGGCATCGGCATAGTGT
B3: EcXA172: antisense clone insert to E. coli b2345 (nucleic acid, listed as Escherichia coli)
antisense: AAAACTCACCTTTTTTGTTGTTATCCCTCAATTACCACAAGTAAAAGGAGATAAACCGACAATGACCTAGACGTAATTATGTAAAAATACTGATGTTCGTCACTGACTATTTCCGATATTCAGCTGTTGAAAAATCAAAAAACTGGAAAAATAATTTTAAATATCAT

Experiments:
[1] = system: E. coli transformed with IPTG-inducible antisense clones (AS-rplW, AS-rplLrplJ, AS-elaD, AS-visC, AS-yohH, AS-atpB/E); assay: Cell-based assay: antibiotic sensitivity of E. coli antisense clones pretreated with IPTG (Example 9)
From the text: The effectiveness of the above cell-based assay was validated using constructs expressing antisense RNA to the proliferation required E. coli genes rplL, rplJ, and rplW encoding ribosomal proteins L7/L12, L10 and L23 respectively. These proteins are part of the protein synthesis apparatus of the cell and as such are required for proliferation. These constructs were used to test the effect of antisense expression on cell sensitivity to antibiotics known to bind to the ribosome and thereby inhibit protein synthesis. Constructs expressing antisense RNA to several other genes (elaD, visC, yohH, and atpE/B), the products of which are not involved in protein synthesis were used for comparison.
First, pLEX5BA (Krause et al., J. Mol. Biol. 274: 365 (1997), the disclosure of which is incorporated herein by reference in its entirety) expression vectors containing antisense constructs to either rplW or to elaD were introduced into separate E. coli cell populations. Vector introduction is a technique well known to those of ordinary skill in the art. The expression vectors of this example contain IPTG inducible promoters that drive the expression of the antisense RNA in the presence of the inducer. However, those skilled in the art will appreciate that other inducible promoters may also be used. Suitable expression vectors are also well known in the art. The E. coli antisense clones to genes encoding ribosomal proteins L7/L12, L10 and L23 were used to test the effect of antisense expression on cell sensitivity to the antibiotics known to bind to these proteins. […]
The cell populations were exposed to a range of IPTG concentrations in liquid medium to obtain the growth inhibitory dose curve for each clone (FIG. 1). First, seed cultures were grown to a particular turbidity that is measured by the optical density (OD) of the growth solution. […] The cells were grown for up to 15 hours and the extent of growth was determined by measuring the optical density of the cultures at 600 nm. […]

[2] = system: Bacterial cells expressing antisense nucleic acid complementary to rplL and rplJ (50S ribosomal subunit proteins); assay: microbe, parasite or virus in culture; format: cell-based, E. coli; settings: for IC50: Escherichia coli; for Fold Increase in Sensitivity: IC50 −IPTG versus +IPTG (400 μM); for Sensitivity Increased?: significant decrease in IC50 in the presence of inducer IPTG
Description: Two-fold dilution series of antibiotics with a known mechanism of action are generated in the culture media selected for further assay development that has been supplemented with the antibiotic used to maintain the construct. A panel of test antibiotics known to act on different pathways is tested side by side with three to four wells being used to evaluate the effect of a test antibiotic on cell growth at each concentration. Equal volumes of test antibiotic and cells are added to the wells of a 384 well microtiter plate and mixed. Cells are prepared as described above using the media selected for assay development supplemented with the antibiotic required to maintain the antisense construct and are diluted 1:100 in identical media immediately prior to addition to the microtiter plate wells. For a control, cells are also added to several wells that contain the solvent used to dissolve the antibiotics but no antibiotic. Cell growth is monitored continuously by incubation at 37° C. in a microtiter plate reader monitoring the OD600 of the wells over an 18-hour period. […] A plot of percent inhibition against log[antibiotic concentration] allows extrapolation of an IC50 value for each antibiotic.
The culture media selected for use in the assay is supplemented with inducer at concentrations shown to inhibit cell growth by 50% and 80% as described above and the antibiotic used to maintain the construct. Two fold dilution series of the panel of test antibiotics used above are generated in each of these media. Several antibiotics are tested side by side with three to four wells being used to evaluate the effects of an antibiotic on cell growth at each concentration, in each media. Equal volumes of test antibiotic and cells are added to the wells of a 384 well microtiter plate and mixed. Cells are prepared as described above using the media selected for use in the assay supplemented with the antibiotic required to maintain the antisense construct. […] Immediately prior to addition to the microtiter plate wells, the cultures are adjusted to an appropriate OD600 (typically 0.002) by dilution into warm (37° C.) sterile media supplemented with identical concentrations of the inducer and antibiotic used to maintain the antisense construct. For a control, cells are also added to several wells that contain solvent used to dissolve test antibiotics but which contain no antibiotic. Cell growth is monitored continuously by incubation at 37° C. in a microtiter plate reader monitoring the OD600 of the wells over an 18-hour period. […] A plot of percent inhibition against log[antibiotic concentration] allows extrapolation of an IC50 value for each antibiotic.
Antibiotics of various chemical classes and modes of action were purchased from Sigma Chemicals (St. Louis, Mo.). Stock solutions were prepared by dissolving each antibiotic in an appropriate aqueous solution based on information provided by the manufacturer. The final working solution of each antibiotic contained no more than 0.2% (w/v) of any organic solvent. To determine their potency against a bacterial strain engineered for expression of an antisense complementary to a proliferation-required gene encoding 50S ribosomal protein, each antibiotic was serially diluted two or three fold in growth medium supplemented with the appropriate antibiotic for maintenance of the anti-sense construct. At least ten dilutions were prepared for each antibiotic. 25 μL aliquots of each dilution were transferred to discrete wells of a 384-well microplate (the assay plate) using a multi-channel pipette. Quadruplicate wells were used for each dilution of an antibiotic under each treatment condition (plus and minus inducer). Each assay plate contained twenty wells for cell growth controls (growth media replacing antibiotic), ten wells for each treatment (plus and minus inducer, in this example IPTG).

[3] = system: E. coli; assay: Inhibition of E. coli proliferation after IPTG induction of antisense clones (growth curves, dilution spotting, score); format: cell-based, Escherichia coli; settings: IPTG induction (1 mM)
Description: (§1) To study the effects of transcriptional induction in liquid medium, growth curves were carried out by back diluting cultures 1:200 into fresh media with or without 1 mM IPTG and measuring the OD450 every 30 minutes (min). To study the effects of transcriptional induction on solid medium, 10^2, 10^3, 10^4, 10^5, 10^6, 10^7 and 10^8 fold dilutions of overnight cultures were prepared. Aliquots of from 0.5 to 3 μl of these dilutions were spotted on selective agar plates with or without 1 mM IPTG. After overnight incubation, the plates were compared to assess the sensitivity of the clones to IPTG.
Of the numerous clones tested, some clones were identified as containing a sequence that inhibited E. coli growth after IPTG induction. […]
(§2) Molecule No. EcXA190, encoding a portion of the b3052 gene of Escherichia coli, was either transformed directly into Enterobacter cloacae, Salmonella typhimurium and/or Klebsiella pneumoniae or subcloned into an expression vector functional in these species and the subclones transformed into these organisms. […] After growth in liquid culture, cells were plated at various serial dilutions and a score determined by calculating the log difference in growth for INDUCED vs. UNINDUCED antisense RNA expression as determined by the maximum 10 fold dilution at which a colony was observed. […]

[4] = system: Salmonella typhimurium; assay: Growth inhibition by induced E. coli antisense RNA in Salmonella typhimurium; format: cell-based; parameters: key: +: a positive in Table V below means that at least 10 fold more cells were required to observe a colony on the induced plate than on the non-induced plate; −: If there was no effect of antisense RNA expression in a microorganism, the clone is minus in Table V below; settings: antisense RNA expression induced with IPTG, serial dilution plating
Description: as §1
as §2, with “organisms. Suitable expression vectors are well known in the art.” for “organisms.”

[5] = system: Enterobacter cloacae; assay: Growth inhibition by induced E. coli antisense RNA in Enterobacter cloacae; format: cell-based; parameters: key: +: a positive in Table V below means that at least 10 fold more cells were required to observe a colony on the induced plate than on the non-induced plate; −: If there was no effect of antisense RNA expression in a microorganism, the clone is minus in Table V below; settings: antisense RNA expression induced with IPTG, serial dilution plating
Description: as §1
as §2, with “organisms. Suitable expression vectors are well known in the art.” for “organisms.”

[6] = system: Klebsiella pneumoniae; assay: Growth inhibition by induced E. coli antisense RNA in Klebsiella pneumoniae; format: cell-based; parameters: key: +: a positive in Table V below means that at least 10 fold more cells were required to observe a colony on the induced plate than on the non-induced plate; −: If there was no effect of antisense RNA expression in a microorganism, the clone is minus in Table V below; settings: antisense RNA expression induced with IPTG, serial dilution plating
Summary of the method: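 Overnight cultures were diluted 10^2 to 10^8-fold and spotted on selective plates with or without 1 mM IPTG to induce antisense RNA from transformed E. coli sequences. After overnight growth, induced vs uninduced was scored as the log difference in the highest dilution giving colonies. No effect scores 0 (or minus); a positive score means at least 10-fold more cells were needed.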

| Molecule | IC50 ([2]; read-out: IC50 (+IPTG)) | IC50 ([2]; read-out: IC50 (−IPTG)) | Fold Increase in Sensitivity [2] | Sensitivity Increased? [2] | effect of antisense expression on E. coli growth/proliferation [3] | further results |
| --- | --- | --- | --- | --- | --- | --- |
| CC[C@H]1OC(=O)[C@H](C)[C@@H](O[C@H]2C[C@@](C)(OC)[C@@H](O)[C@H](C)O2)[C@H](C)[C@@H](O[C@@H]2O[C@H](C)C[C@H](N(C)C)[C@H]2O)[C@](C)(O)C[C@@H](C)C(=O)[C@H](C)[C@@H](O)[C@]1(C)O [Erythromycin] | 0.187 µg/mL (≈ 0.255 µM) | 7.47 µg/mL (≈ 10.2 µM) | 40 | Yes |  | sensitivity to antibiotic ([1]; initial experiments, clones with antisense to non-protein synthesis genes elaD, atpB/E and visC): do not; sensitivity to antibiotic ([1]; initial experiments, clones with antisense to protein synthesis genes (L7/L12 & L10, L7/L12 alone, L22, L18, rRNA, Elongation Factor G)): increased sensitivity |
| CCn1cc(C(=O)O)c(=O)c2ccc(C)nc21 [Nalidixic acid] | 6.03 µg/mL (≈ 25.9 µM) | 6.97 µg/mL (≈ 30 µM) | 1 | No |  | sensitivity to antibiotic ([1]; cells/clone expressing antisense to rplL and rplJ (L7/L12, L10), IPTG induced): does not show increased sensitivity |
| B1 |  |  |  |  | reduction in cell growth |  |
| B2 |  |  |  |  | reduction in cell growth |  |
| B3 |  |  |  |  |  | Sensitivity of S. typhimurium to antisense nucleic acid (growth inhibition, induced vs. uninduced) [4]: −; Sensitivity of E. cloacae to antisense nucleic acid (growth inhibition, induced vs. uninduced) [5]: −; Sensitivity of K. pneumoniae to antisense nucleic acid (growth inhibition, induced vs. uninduced) [6]: − |
